Reference: article PMC8981980 (Journal of medicinal chemistry, 2022)
Entries after “also recorded” stand apart in the source; their conditions may differ. Values belong to the compound of their own block, whether it stands above or below them.

Columns and labels:
CHD1L = target: T1, CHD1L (Homo sapiens, UniProt Q86WJ1); assay: SAR summary from cat-CHD1L inhibition and cell-based assays; conditions: SAR statement relative to parent / 1-carbon analogs
T1 sequence (Q86WJ1 41-540 limits assumed): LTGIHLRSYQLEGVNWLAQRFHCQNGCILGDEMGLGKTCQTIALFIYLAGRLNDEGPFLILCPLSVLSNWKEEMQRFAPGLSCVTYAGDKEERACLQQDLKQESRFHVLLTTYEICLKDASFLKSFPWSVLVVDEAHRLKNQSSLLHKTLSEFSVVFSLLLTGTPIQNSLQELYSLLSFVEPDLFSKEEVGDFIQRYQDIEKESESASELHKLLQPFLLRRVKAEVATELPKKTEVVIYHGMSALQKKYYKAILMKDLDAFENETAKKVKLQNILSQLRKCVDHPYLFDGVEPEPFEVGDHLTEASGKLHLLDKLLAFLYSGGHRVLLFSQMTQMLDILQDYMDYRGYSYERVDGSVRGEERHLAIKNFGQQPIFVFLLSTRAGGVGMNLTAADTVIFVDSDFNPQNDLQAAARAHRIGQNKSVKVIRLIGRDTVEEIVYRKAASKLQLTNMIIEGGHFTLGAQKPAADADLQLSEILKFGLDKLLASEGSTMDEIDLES

[1] = In vitro mouse microsomal stability; conditions: compared with 6.0 / other tested CHD1Li
CSC stemness = conditions: clonogenic colony formation assay; cited from earlier work
[2] = cited from earlier work
SW620 tumor organoids = assay: SW620 tumor organoid viability; type: cell-based; conditions: compared to 6.1, 6.2 and 6.3; SI Table S1
[3] = tested on: SW620 isolated M-Phenotype flank tumors; assay: Xenograft antitumor efficacy study; type: in vivo, athymic nude mice
[4] = tested on: HCT116 M-Phenotype tumor organoids (VimPro-GFP / EcadPro-RFP); assay: EMT dual-reporter 3D high-content imaging, HCT116 M-Phenotype tumor organoids; type: cell-based; conditions: as treatment dose increases

SMILES: Cc1cc(Nc2ccc(NC(=O)CCc3c[nH]c4ccccc34)cc2)nc(N2CCCC2)n1 [6.6, 3-(1H-indol-3-yl)-N-(4-((6-methyl-2-(pyrrolidin-1-yl)pyrimidin-4-yl)amino)phenyl) propanamide]
biological activity (cat-CHD1L inhibition and cell-based models) (CHD1L): loss of activity

biological activity (cat-CHD1L inhibition and cell-based models) (CHD1L): significant loss in activity
SMILES: COc1cnc(N2CCCC2)nc1Nc1ccc(NC(=O)Cc2cccs2)cc1 [6.10, N-(4-((5-methoxy-2-(pyrrolidin-1-yl)pyrimidin-4-yl)amino)phenyl)-2-(thiophen-2-yl)acetamide]

SMILES: Cc1cc(Nc2ccc(NC(=O)Cc3cc(Cl)nc4ccccc34)cc2)nc(N2CCCC2)n1 [6.31]
metabolic stability to mouse liver microsomes [1]: increased the metabolic stability

SMILES: Cc1nc(N2CCCC2)nc(N(C)c2ccc(NC(=O)Cc3cccs3)cc2)c1F [6.3, N-(4-((5-fluoro-6-methyl-2-(pyrrolidin-1-yl)pyrimidin-4-yl)(methyl)amino)phenyl)-2-(thiophen-2-yl)acetamide]
biological activity (cat-CHD1L inhibition and cell-based models) (CHD1L): loss of inhibitor activity; also recorded: diminished biological activity

biological activity (cat-CHD1L inhibition and cell-based models) (CHD1L): significant loss of activity
SMILES: Cc1cc(Oc2ccc(NC(=O)c3c[nH]c4ccccc34)cc2)nc(N2CCCC2)n1 [6.14, N-(4-((6-methyl-2-(pyrrolidin-1-yl)pyrimidin-4-yl)oxy)phenyl)-1H-indole-3-carboxamide]

biological activity (cat-CHD1L inhibition and cell-based models) (CHD1L): loss of inhibitor activity
SMILES: O=C(Cc1cccs1)Nc1ccc(Nc2nc(N3CCCC3)ncc2F)cc1 [6.2, N-(4-((5-fluoro-2-(pyrrolidin-1-yl)pyrimidin-4-yl)amino)phenyl)-2-(thiophen-2-yl)acetamide]

SMILES: Cc1nc(N2CCCC2)nc(Nc2ccc(NC(=O)Cc3cccs3)cc2)c1F [6.1, N-(4-((5-fluoro-6-methyl-2-(pyrrolidin-1-yl)pyrimidin-4-yl)amino)phenyl)-2-(thiophen-2-yl)acetamide]
biological activity (cat-CHD1L inhibition and cell-based models) (CHD1L): loss of inhibitor activity; also recorded: significant loss in activity

SMILES: Cc1cc(Nc2ccc(NC(=O)Cc3cccs3)cc2)nc(N2CCCC2)n1 [6.0, N-(4-((6-methyl-2-(pyrrolidine-1-yl)pyrimidin-4-yl)amino)phenyl)-2-(thiophen-2-yl)acetamide]
CSC stemness (CSC stemness): significantly inhibits CSC stemness | maximum tolerated dose ([2]; intraperitoneal (IP) daily over five days): 50 mg/kg | liver toxicity ([2]; mice, 50 mg/kg IP daily over five days): does not display any liver toxicity

biological activity (cat-CHD1L inhibition and cell-based models) (CHD1L): significant loss of activity
SMILES: Cc1cc(Oc2ccc(NC(=O)Cc3cccs3)cc2)nc(N2CCCC2)n1 [6.13, N-(4-((6-methyl-2-(pyrrolidin-1-yl)pyrimidin-4-yl)oxy)phenyl)-2-(thiophen-2-yl)acetamide]

biological activity (cat-CHD1L inhibition and cell-based models) (CHD1L): significant loss of activity
SMILES: Cc1cc(Oc2ccc(NC(=O)Cc3cccs3)cc2)nc(Cl)n1 [6.12, N-(4-((2-chloro-6-methylpyrimidin-4-yl)oxy)phenyl)-2-(thiophen-2-yl)acetamide]

SMILES: Cc1cc(Nc2ccc(NC(=O)c3c[nH]c4ccccc34)cc2)nc(N2CCCC2)n1 [6.4, N-(4-((6-methyl-2-(pyrrolidin-1-yl)pyrimidin-4-yl)amino)phenyl)-1H-indole-3-carboxamide]
cell-based antitumor activity (potency) (SW620 tumor organoids): maintained potency | metabolic stability to mouse liver microsomes [1]: increased the metabolic stability

SMILES: Cc1cc(Nc2ccc(NC(=O)Cc3cc(Br)cs3)cc2)nc(N2CCCC2)n1 [6.11, 2-(4-bromothiophen-2-yl)-N-(4-((6-methyl-2-(pyrrolidin-1-yl)pyrimidin-4-yl)amino)phenyl) acetamide]
tolerability / gross toxicity ([3]; PO 75 mg/kg and 125 mg/kg 5-days/week over 30 days): no adverse gross toxicity | tumor volume ([3]; PO 75 mg/kg and 125 mg/kg 5-days/week over 30 days, from day 20, highly significant after 28 days, vs vehicle): significant decrease in tumor volume | body weight ([3]; during the treatment period, PO 28 days): increased body weight | biological activity (cat-CHD1L inhibition and cell-based models) (CHD1L): most promising in vitro biological activity | metabolic stability to mouse liver microsomes [1]: most metabolically stable; also recorded: increased the metabolic stability

biological activity (cat-CHD1L inhibition and cell-based models) (CHD1L): significant loss in biological activity
SMILES: Cc1cc(Nc2ccc(NC(=O)Cc3cccs3)cc2)nc(N2CCOCC2)n1 [6.15, N-(4-((6-methyl-2-morpholinopyrimidin-4-yl)amino)phenyl)-2-(thiophen-2-yl)acetamide]

SMILES: Cc1cc(Nc2ccc(NC(=O)Cc3c[nH]c4ccccc34)cc2)nc(N2CCCC2)n1 [6.5, 2-(1H-indol-3-yl)-N-(4-((6-methyl-2-(pyrrolidin-1-yl)pyrimidin-4-yl)amino)phenyl)acetamide]
metabolic stability to mouse liver microsomes [1]: increased the metabolic stability | EcadPro-RFP promoter activity [4]: upregulation | VimPro-GFP promoter activity [4]: marked downregulation

biological activity (cat-CHD1L inhibition and cell-based models) (CHD1L): loss of activity
SMILES: Cc1cc(Nc2ccc(NC(=O)CCCc3c[nH]c4ccccc34)cc2)nc(N2CCCC2)n1 [6.7, 4-(1H-indol-3-yl)-N-(4-((6-methyl-2-(pyrrolidin-1-yl)pyrimidin-4-yl)amino)phenyl)butanamide]

SMILES: Cc1cc(Nc2ccc(NC(=O)/C=C/c3c[nH]c4ccccc34)cc2)nc(N2CCCC2)n1 [6.8, (E)-3-(1H-indol-3-yl)-N-(4-((6-methyl-2-(pyrrolidin-1-yl)pyrimidin-4-yl)amino)phenyl) acrylamide]
biological activity (cat-CHD1L inhibition and cell-based models) (CHD1L): restores activity
